# US20210045385A1, “PYRIDAZINONE-SUBSTITUTED KETOXIMES AS HERBICIDES” (FMC Corporation, priority 2018, published 2021)
# Experiments:
# Format in all cases: in vivo
# [1] = test system: Italian ryegrass (Lolium multiflorum); test: Test A preemergence, visual plant response rating; settings: approx. 10 days
# Outline: (§1)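 Ratings 0–100 (100 = complete control), visual, vs untreated controls at ~10 days. Application pre- or postemergence; solvent mixture with surfactant; loam/sand medium.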
# [2] = test system: foxtail, green (green foxtail, Setaria viridis); test: Test A preemergence, visual plant response rating; settings: approx. 10 days
# Outline: as §1
# [3] = test system: barnyardgrass (Echinochloa crus-galli); test: Test A preemergence, visual plant response rating; settings: approx. 10 days
# Outline: as §1
# [4] = test system: pigweed (Amaranthus retroflexus); test: Test A preemergence, visual plant response rating; settings: approx. 10 days
# Outline: as §1
# kochia (Kochia scoparia) [5] = test: Test A preemergence, visual plant response rating; settings: approx. 10 days
# Outline: as §1
# [6] = test system: ragweed (common ragweed, Ambrosia elatior); test: Test A preemergence, visual plant response rating; settings: approx. 10 days
# Outline: as §1
# [7] = test system: barnyardgrass (Echinochloa crus-galli); test: Test B flooded paddy test, visual plant response rating; settings: 250 g ai/ha, Flood, applied to paddy water, 2-leaf stage, evaluated after 13 to 15 days
# Outline: (§2)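 Plants were raised to the 2-leaf stage, then pots were flooded to 3 cm above the soil and test compound was applied directly into the paddy water. Water depth was held for the whole test; after 13 to 15 days in a greenhouse, responses were scored visually against controls.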
# [8] = test system: sedge, umbrella (small-flower umbrella sedge, Cyperus difformis); test: as above; settings: 250 g ai/ha, Flood, applied to paddy water, 2-leaf stage, evaluated after 13 to 15 days
# Outline: as §2
# [9] = test system: ducksalad (Heteranhera limosa); test: as above; settings: 250 g ai/ha, Flood, applied to paddy water, 2-leaf stage, evaluated after 13 to 15 days
# Outline: as §2
# rice (Oryza sativa) = test: as above; settings: 250 g ai/ha, Flood, applied to paddy water, 2-leaf stage, evaluated after 13 to 15 days
# Outline: as §2
# [10] = test system: Italian ryegrass (Lolium multiflorum); test: Test A postemergence, visual plant response rating; settings: for Ryegrass, Italian plant response rating (0 to 100 scale): 500 g ai/ha, postemergence, 0 is no effect, 100 is complete control; for Ryegrass, Italian plant response rating: Postemergence, 125 g ai/ha, 0 to 100 scale (0 no effect, 100 complete control)
# Outline: as §1
# [11] = test system: wheat (Triticum aestivum); test: Test A postemergence, visual plant response rating; settings: for Wheat plant response rating (0 to 100 scale): 500 g ai/ha, postemergence, 0 is no effect, 100 is complete control; for Wheat plant response rating: Postemergence, 125 g ai/ha, 0 to 100 scale (0 no effect, 100 complete control)
# Outline: as §1
# [12] = test system: foxtail, green (green foxtail, Setaria viridis); test: Test A postemergence, visual plant response rating; settings: for Foxtail, Green plant response rating (0 to 100 scale): 500 g ai/ha, postemergence, 0 is no effect, 100 is complete control; for Foxtail, Green plant response rating: Postemergence, 125 g ai/ha, 0 to 100 scale (0 no effect, 100 complete control)
# Outline: as §1
# [13] = test system: barnyardgrass (Echinochloa crus-galli); test: Test A postemergence, visual plant response rating; settings: for Barnyardgrass plant response rating (0 to 100 scale): 500 g ai/ha, postemergence, 0 is no effect, 100 is complete control; for Barnyardgrass plant response rating: Postemergence, 125 g ai/ha, 0 to 100 scale (0 no effect, 100 complete control)
# Outline: as §1
# [14] = test system: pigweed (Amaranthus retroflexus); test: Test A postemergence, visual plant response rating; settings: for Pigweed plant response rating (0 to 100 scale): 500 g ai/ha, postemergence, 0 is no effect, 100 is complete control; for Pigweed plant response rating: Postemergence, 125 g ai/ha, 0 to 100 scale (0 no effect, 100 complete control)
# Outline: as §1
# kochia (Kochia scoparia) [15] = test: Test A postemergence, visual plant response rating; settings: for Kochia plant response rating (0 to 100 scale): 500 g ai/ha, postemergence, 0 is no effect, 100 is complete control; for Kochia plant response rating: Postemergence, 125 g ai/ha, 0 to 100 scale (0 no effect, 100 complete control)
# Outline: as §1
# [16] = test system: blackgrass (Alopecurus myosuroides); test: Test A postemergence, visual plant response rating; settings: for Blackgrass plant response rating (0 to 100 scale): 500 g ai/ha, postemergence, 0 is no effect, 100 is complete control; for Blackgrass plant response rating: Postemergence, 125 g ai/ha, 0 to 100 scale (0 no effect, 100 complete control)
# Outline: as §1
# [17] = test system: ragweed (common ragweed, Ambrosia elatior); test: Test A postemergence, visual plant response rating; settings: for Ragweed plant response rating (0 to 100 scale): 500 g ai/ha, postemergence, 0 is no effect, 100 is complete control; for Ragweed plant response rating: Postemergence, 125 g ai/ha, 0 to 100 scale (0 no effect, 100 complete control)
# Outline: as §1
# [18] = test system: galium (catchweed bedstraw, Galium aparine); test: Test A postemergence, visual plant response rating; settings: for Galium plant response rating (0 to 100 scale): 500 g ai/ha, postemergence, 0 is no effect, 100 is complete control; for Galium plant response rating: Postemergence, 125 g ai/ha, 0 to 100 scale (0 no effect, 100 complete control)
# Outline: as §1
# corn (Zea mays) = test: Test A postemergence, visual plant response rating; settings: for Corn plant response rating (0 to 100 scale): 500 g ai/ha, postemergence, 0 is no effect, 100 is complete control; for Corn plant response rating: Postemergence, 125 g ai/ha, 0 to 100 scale (0 no effect, 100 complete control)
# Outline: as §1
Compound,"Ryegrass, Italian plant response rating (0 to 100 scale) ([1]; 125 g ai/ha Preemergence)","Ryegrass, Italian plant response rating (0 to 100 scale) ([1]; 500 g ai/ha Preemergence)","Foxtail, Green plant response rating (0 to 100 scale) ([2]; 125 g ai/ha Preemergence)","Foxtail, Green plant response rating (0 to 100 scale) ([2]; 500 g ai/ha Preemergence)",Barnyardgrass plant response rating (0 to 100 scale) ([3]; 125 g ai/ha Preemergence),Barnyardgrass plant response rating (0 to 100 scale) ([3]; 500 g ai/ha Preemergence),Pigweed plant response rating (0 to 100 scale) ([4]; 125 g ai/ha Preemergence),Pigweed plant response rating (0 to 100 scale) ([4]; 500 g ai/ha Preemergence),Kochia plant response rating (0 to 100 scale) (kochia (Kochia scoparia) [5]; 125 g ai/ha Preemergence),Kochia plant response rating (0 to 100 scale) (kochia (Kochia scoparia) [5]; 500 g ai/ha Preemergence),Ragweed plant response rating (0 to 100 scale) ([6]; 125 g ai/ha Preemergence),Ragweed plant response rating (0 to 100 scale) ([6]; 500 g ai/ha Preemergence),"Plant response rating, Barnyardgrass (0 to 100 scale, 0 is no effect, 100 is complete control) [7]","Plant response rating, Sedge, Umbrella (0 to 100 scale, 0 is no effect, 100 is complete control) [8]","Plant response rating, Ducksalad (0 to 100 scale, 0 is no effect, 100 is complete control) [9]","Plant response rating, Rice (0 to 100 scale, 0 is no effect, 100 is complete control) (rice (Oryza sativa))","Ryegrass, Italian plant response rating (0 to 100 scale) [10]","Ryegrass, Italian plant response rating [10]",Wheat plant response rating (0 to 100 scale) [11],Wheat plant response rating [11],further results
CO/N=C(/c1cc(C)ccc1C)c1c(O)c(C)nn(C)c1=O [Compound 30],20,50,0,60,0,50,30,80,0,30,20,70,0,0,0,0,70,40,30,10,"Foxtail, Green plant response rating (0 to 100 scale) [12]: 40; Foxtail, Green plant response rating [12]: 0; Barnyardgrass plant response rating (0 to 100 scale) [13]: 40; Barnyardgrass plant response rating [13]: 20; Pigweed plant response rating (0 to 100 scale) [14]: 50; Pigweed plant response rating [14]: 30; Kochia plant response rating (0 to 100 scale) (kochia (Kochia scoparia) [15]): 30; Kochia plant response rating (kochia (Kochia scoparia) [15]): 10; Blackgrass plant response rating (0 to 100 scale) [16]: 80; Blackgrass plant response rating [16]: 10; Ragweed plant response rating (0 to 100 scale) [17]: 60; Ragweed plant response rating [17]: 40; Galium plant response rating (0 to 100 scale) [18]: 80; Galium plant response rating [18]: 60; Corn plant response rating (0 to 100 scale) (corn (Zea mays)): 0; Corn plant response rating (corn (Zea mays)): 0"
CCn1nc(C)c(O)c(C(=NOC)c2cccc(Cl)c2)c1=O (mixture of isomers) [Compound 2],20,60,0,50,0,50,0,0,0,0,0,0,0,0,0,0,80,20,10,10,"Foxtail, Green plant response rating (0 to 100 scale) [12]: 20; Foxtail, Green plant response rating [12]: 0; Barnyardgrass plant response rating (0 to 100 scale) [13]: 30; Barnyardgrass plant response rating [13]: 0; Pigweed plant response rating (0 to 100 scale) [14]: 10; Pigweed plant response rating [14]: 0; Kochia plant response rating (0 to 100 scale) (kochia (Kochia scoparia) [15]): 20; Kochia plant response rating (kochia (Kochia scoparia) [15]): 10; Blackgrass plant response rating (0 to 100 scale) [16]: 20; Blackgrass plant response rating [16]: 0; Ragweed plant response rating (0 to 100 scale) [17]: 20; Ragweed plant response rating [17]: 10; Galium plant response rating (0 to 100 scale) [18]: 30; Galium plant response rating [18]: 10; Corn plant response rating (0 to 100 scale) (corn (Zea mays)): 0; Corn plant response rating (corn (Zea mays)): 0"
CCO/N=C(/c1cccc(Cl)c1)c1c(O)c(C)nn(C)c1=O [Compound 9],20,40,20,40,0,50,40,90,10,60,80,90,0,0,0,0,60,40,0,0,"Foxtail, Green plant response rating (0 to 100 scale) [12]: 30; Foxtail, Green plant response rating [12]: 10; Barnyardgrass plant response rating (0 to 100 scale) [13]: 20; Barnyardgrass plant response rating [13]: 0; Pigweed plant response rating (0 to 100 scale) [14]: 20; Pigweed plant response rating [14]: 0; Kochia plant response rating (0 to 100 scale) (kochia (Kochia scoparia) [15]): 60; Kochia plant response rating (kochia (Kochia scoparia) [15]): 10; Blackgrass plant response rating (0 to 100 scale) [16]: 20; Blackgrass plant response rating [16]: 0; Ragweed plant response rating (0 to 100 scale) [17]: 80; Ragweed plant response rating [17]: 30; Galium plant response rating (0 to 100 scale) [18]: 90; Galium plant response rating [18]: 80; Corn plant response rating (0 to 100 scale) (corn (Zea mays)): 10; Corn plant response rating (corn (Zea mays)): 0"
